Test system: RKO WT cells
Settings: 48 h, up to 13.5 μM tested
Text: Prior to screening the compound library in the isogenic CPA, we assessed their CRBN binding affinities using a fluorescence-polarization-based competition assay with recombinant DDB1-CRBN and the fluorescent tracer 16 (Figure S2). […] We also assessed the cytotoxicity of the CRBN binders in RKO wild-type (WT) cells to determine the appropriate treatment concentration.
Assessment of gene expression and essentiality in RKO WT
Public datasets on the transcriptome and essentiality of a protein‐encoding gene for RKO (cell line ID: ACH‐000943) were retrieved from DepMap Public 23Q2 (https://depmap.org/portal/, accessed on 14 August 2023). […]
Fluorescence Polarization‐based competition assay
Fluorescence Polarization assays were performed in 384‐well, Low Volume, Black, Round Bottom, Polystyrene Nonbinding surface Microplates (Corning, #4514). […] Fluorescence polarization values were determined with a PerkinElmer Envision reader with FITC FP dual mirror and FITC FP 480 excitation filter and FITC FP 535 emission filters. Fluorescence polarization values of a 10x serial dilution (10 nM to 100 µM) of the test compounds were determined in triplicates. EC50 values were calculated with GraphPad Prism software (version 10.0.2) with a non‐linear fit function (4PL sigmoidal curve fit) adjusting the bottom constrain to the FP value of free tracer. […]

CN(Cc1ncc(C2CC2)o1)S(=O)(=O)Oc1ccc(Nc2ccc3c(c2)C(=O)N(C2CCC(=O)NC2=O)C3=O)cc1 (stereo not shown) [FL2-14]
cytotoxicity (CellTiter-Glo): not cytotoxic
